Experimental data as given in ChEMBL document CHEMBL1148505, “Inhibition of Plasmodium falciparum fatty acid biosynthesis: evaluation of FabG, FabZ, and FabI as drug targets for flavonoids” (J Med Chem, 2006).
Activity calls are given as the source filed them. The calls are words filed in the database; no cut-off is given here.

Assays:
[1] = molecular target: T1, 3-oxoacyl-acyl-carrier protein reductase (Plasmodium falciparum) (UniProt Q965D6); test: Inhibition of FabG at 100 uM
T1 sequence (whole entry): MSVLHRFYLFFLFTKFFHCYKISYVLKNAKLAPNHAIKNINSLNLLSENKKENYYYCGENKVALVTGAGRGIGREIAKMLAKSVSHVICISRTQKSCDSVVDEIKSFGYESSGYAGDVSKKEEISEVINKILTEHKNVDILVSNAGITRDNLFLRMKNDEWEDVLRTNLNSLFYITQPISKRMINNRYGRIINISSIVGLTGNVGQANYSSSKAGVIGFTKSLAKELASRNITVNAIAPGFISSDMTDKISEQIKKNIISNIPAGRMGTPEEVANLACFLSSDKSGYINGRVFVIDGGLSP

Fatty acid synthase = molecular target: T2, Fatty acid synthase (Plasmodium falciparum, UniProt Q965D7); test: Inhibition of FabZ
T2 sequence (Q965D7 whole entry): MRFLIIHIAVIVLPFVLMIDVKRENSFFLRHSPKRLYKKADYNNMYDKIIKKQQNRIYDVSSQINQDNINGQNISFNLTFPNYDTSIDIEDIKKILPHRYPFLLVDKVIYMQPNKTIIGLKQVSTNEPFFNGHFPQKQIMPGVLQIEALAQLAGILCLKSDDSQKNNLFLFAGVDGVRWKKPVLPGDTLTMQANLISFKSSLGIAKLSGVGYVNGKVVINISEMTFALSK

Plasmodium falciparum [2] = test: Antiplasmodial activity against chloroquine-sensitive Plasmodium falciparum NF54; type: functional, organism-based
[3] = molecular target: T3, Enoyl-acyl-carrier protein reductase (Plasmodium falciparum) (UniProt Q965D5); test: Inhibition of FabI at 100 uM
T3 sequence (whole entry): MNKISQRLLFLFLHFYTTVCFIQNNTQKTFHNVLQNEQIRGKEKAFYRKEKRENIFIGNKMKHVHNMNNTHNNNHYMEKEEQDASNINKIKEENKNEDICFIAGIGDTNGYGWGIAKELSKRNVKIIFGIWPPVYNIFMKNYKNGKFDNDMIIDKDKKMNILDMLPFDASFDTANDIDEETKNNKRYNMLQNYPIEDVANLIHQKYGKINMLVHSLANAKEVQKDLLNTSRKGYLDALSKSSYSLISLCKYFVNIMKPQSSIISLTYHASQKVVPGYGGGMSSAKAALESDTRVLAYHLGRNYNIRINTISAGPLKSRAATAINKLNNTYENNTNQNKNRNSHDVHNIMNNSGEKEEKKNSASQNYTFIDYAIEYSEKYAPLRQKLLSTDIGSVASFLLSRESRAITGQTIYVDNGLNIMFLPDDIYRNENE

[4] = molecular target: T4, Fatty acid synthase (Plasmodium falciparum) (UniProt Q965D7); test: Inhibition of FabZ at 100 uM
T4 sequence (whole entry): T2 sequence (Q965D7 whole entry)

[5] = molecular target: T5, Enoyl-acyl-carrier protein reductase (Plasmodium falciparum, UniProt Q965D5); test: Inhibition of FabI
T5 sequence (Q965D5 whole entry): T3 sequence (whole entry)

[6] = molecular target: T6, 3-oxoacyl-acyl-carrier protein reductase (Plasmodium falciparum, UniProt Q965D6); test: Inhibition of FabG in presence of NADPH
T6 sequence (Q965D6 whole entry): T1 sequence (whole entry)

[7] = molecular target: T6, 3-oxoacyl-acyl-carrier protein reductase; test: Inhibition of FabG
[8] = molecular target: T6, 3-oxoacyl-acyl-carrier protein reductase; test: Inhibition of FabG in presence of acetoacetyl-CoA
Plasmodium falciparum [9] = test: Antiplasmodial activity against chloroquine-resistant Plasmodium falciparum K1; type: functional, organism-based

| Activity [1] | IC50 (Fatty acid synthase) | IC50 (Plasmodium falciparum [2]) | Activity [3] | Activity [4] | IC50 [7] | SMILES | IC50 [5] | Ki [6] | Ki (Fatty acid synthase) | Ki [5] | Ki [8] | IC50 (Plasmodium falciparum [9]) |
| --- | --- | --- | --- | --- | --- | --- | --- | --- | --- | --- | --- | --- |
| inactive | 40 µM | 19.8 µM | inactive |  |  | COc1cc(OC)c2c(c1C)O[C@H](c1ccccc1)CC2=O |  |  |  |  |  |  |
| inactive |  | 36.4 µM | inactive | inactive |  | O=c1c(O)c(-c2ccccc2)oc2ccc(O)cc12 |  |  |  |  |  |  |
| inactive |  | 8.8 µM | inactive | inactive |  | COc1cc2c(c(O)c1OC)C(=O)C[C@@H](c1ccc(O)cc1)O2 |  |  |  |  |  |  |
| inactive |  | 40.9 µM | inactive | inactive |  | COc1ccc2c(=O)cc(-c3ccccc3)oc2c1OC |  |  |  |  |  |  |
| inactive |  | 49.2 µM |  | inactive |  | O=c1c(O)c(-c2ccccc2)oc2cc(O)ccc12 [3,7-DIHYDROXYFLAVONE] | 10 µM |  |  |  |  |  |
| inactive |  | 65.9 µM | inactive | inactive |  | O=c1cc(-c2ccccc2)oc2cccc(O)c12 [5-HYDROXYFLAVONE] |  |  |  |  |  |  |
| inactive | 30 µM | 5.3 µM | inactive |  |  | O=c1cc(-c2ccccc2)oc2ccc(O)cc12 [6-HYDROXYFLAVONE] |  |  |  |  |  |  |
| inactive | 20 µM | 65.5 µM | inactive |  |  | O=c1cc(-c2ccccc2)oc2cc(O)ccc12 [7-HYDROXYFLAVONE] |  |  |  |  |  |  |
| inactive |  | > 150 µM | inactive | inactive |  | Oc1cc(O)c2c(c1)O[C@@H](c1ccc(O)c(O)c1)[C@@H](O)C2 [(+)-EPICATECHIN] |  |  |  |  |  |  |
| inactive |  | > 150 µM | inactive | inactive |  | Oc1cc(O)c2c(c1)O[C@@H](c1ccc(O)c(O)c1)[C@H](O)C2 [(-)-CATECHIN] |  |  |  |  |  |  |
| inactive |  | > 150 µM | inactive | inactive |  | Oc1cc(O)c2c(c1)O[C@H](c1ccc(O)c(O)c1)[C@H](O)C2 [(-)-EPICATECHIN] |  |  |  |  |  |  |
| inactive | 8 µM | 34.3 µM | inactive |  |  | COc1ccc(-c2coc3cc(O)cc(O)c3c2=O)cc1 [BIOCHANIN] |  |  |  |  |  |  |
|  |  | 29.8 µM | inactive | inactive | 10 µM | O=c1cc(-c2ccccc2)oc2cc(O)cc(O)c12 [CHRYSIN] |  |  |  |  |  |  |
| inactive |  | 144 µM | inactive | inactive |  | Oc1cc(O)c2c(c1)O[C@H](c1ccc(O)c(O)c1)[C@@H](O)C2 [CIANIDANOL] |  |  |  |  |  |  |
|  |  | 16.9 µM | inactive | inactive | 70 µM | COc1cc2oc(-c3ccc(O)cc3)cc(=O)c2c(O)c1OC [CIRSIMARITIN] |  |  |  |  |  |  |
| inactive | 30 µM | 104 µM | inactive |  |  | O=c1c(-c2ccc(O)cc2)coc2cc(O)ccc12 [DAIDZEIN] |  |  |  |  |  |  |

| SMILES | Activity [1] | IC50 (Fatty acid synthase) | IC50 (Plasmodium falciparum [2]) | Activity [3] | Activity [4] | IC50 [7] | IC50 [5] | Ki [6] | Ki (Fatty acid synthase) | Ki [5] | Ki [8] | IC50 (Plasmodium falciparum [9]) |
| --- | --- | --- | --- | --- | --- | --- | --- | --- | --- | --- | --- | --- |
| O=C(O[C@@H]1Cc2c(O)cc(O)cc2O[C@H]1c1ccc(O)c(O)c1)c1cc(O)c(O)c(O)c1 [(-)-CATECHINGALLATE] |  | 0.4 µM | 3.2 µM |  |  | 1 µM | 0.3 µM | 2.8 µM | 2.8 µM | 0.04 µM | 6.4 µM | 0.4 µM |
| Oc1cc(O)c2c(c1)O[C@@H](c1cc(O)c(O)c(O)c1)[C@H](O)C2 [(-)-GALLOCATECHIN] | inactive |  | > 150 µM | inactive | inactive |  |  |  |  |  |  |  |
| O=c1cc(-c2ccc(O)cc2)oc2cc(O)cc(O)c12 [APIGENIN] | inactive |  | 17.4 µM |  | inactive |  | 50 µM |  |  |  |  |  |
